Laboratory results from patent US12215387B2, “Biomarker predictive of responsiveness to alpha 7 nicotinic acetylcholine receptor activator treatment” (Novartis AG, priority 2012, dated 2025).

Tested on: patients with schizophrenia
Assay: Continuous Paired Associates Learning (CPAL) test of the CogState schizophrenia battery, by CYP1A2 rs2069514 genotype
Type: in vivo, human
From the text: To measure the effect of alpha 7 nicotinic acetylcholine receptor activator treatment on the cognitive skills of schizophrenic patients, an adequate cognitive test battery (CogState™) with short duration (as described in detail below) was applied allowing multiple time points measurements during the treatment period (Pietrzak, et al 2009; Maruff, et al 2009).
The CPAL task is a validated test that assesses visual episodic memory (associate learning). This test has been used previously in schizophrenia. Before beginning this task, the test supervisor reads the full instructions to the patient from the test supervisor script. On the CPAL test, participants must learn a series of associations between a set of difficult to verbalize patterns and locations. In the presentation phase of the task, the pattern appears at the location and the subject is required to acknowledge that they have seen the pattern by touching the location at which it appears. At this stage of the task the patient will also see that there are two locations at which no target appears (distractor locations). Patterns are presented, in random order. However, once presented the pattern remains at the same location throughout the task. In the learning phase of the task, patients must place each of the eight patterns in their correct locations. They must do this in six rounds. For the first round, one of the patterns is presented in the centre location and the subject is required to remember the location at which it had been shown. They indicate the location by touching it. If they touch the incorrect location, a visual and audible signal occurs (a red cross appears over the location and a buzzer sound is presented). The patient is then required to choose a second location. This process continues until the patient has correctly placed all […] of the targets in their correct locations. Once all eight patterns have been placed correctly, the second round begins. In the second round the patterns remain in the same locations, but their order of presentation in the centre of the screen is different to that of the first round (randomized). The process of placing each target in the correct location proceeds as it did in the first round. When the second round is complete, the same process is repeated as the rounds progress the number of errors made in placing the patterns in their correct locations reduces. Administration time is approximately 5 minutes in healthy volunteers. Patients with Schizophrenia would be expected to complete the task within about 12 minutes.
The assessment of activity was obtained from a statistical analysis of the post dose Area Under the Effect Curve (AUEC) 4-10 on CPAL as follows: variables were separately analyzed by means of a linear mixed effect model adjusted for the period-specific baseline value for the scale, the treatment group, the period, and the sequence as fixed effects, and for the patient as a random effect. The period-specific baseline value for the scale was obtained from the average of the period-specific Day −1 values and from the pre-dose value. The mean treatment difference (and its 95% CI) between each B-5 dose group and placebo was obtained from the model. The effect size was obtained by dividing the mean treatment difference (and its 95% CI) by the square root of twice the estimated variance of the residual error. Activity, as defined in the paragraph above, was assessed from the effect size of CPAL.
In an attempt to identify a subset of patients who respond to B-5 treatment, a study in a population of 29 individuals using the CPAL assessment was conducted. The purpose was to investigate the relationship between the genetic variants rs2069514 (SEQ IDs NO. 1 and 2) in the CYP1A2 gene and B-5 efficacy in the study. In the study, B-5 mono-fumarate was used in the form of hard gelatin capsules as described in Example E. […]

For Cc1ccc(-c2ccc(O[C@H]3CN4CCC3CC4)cn2)cc1 [B-5, (R)-3-(6-p-tolyl-pyridin-3-yloxy)-1-aza-bicyclo[2.2.2]octane], the “CPAL - AUC4-10 Estimated mean AUC 4-10” value (CYP1A2 genotype GG (n = 15), B-5 2 mg) was 414.75 Total # errors × Hours, the “CPAL - AUC4-10 Placebo - B-5 Effect size” value (CYP1A2 genotype GG (n = 15), B-5 2 mg, P-value 0.59) was 0.15 and the “CPAL - AUC4-10 Estimated mean AUC 4-10” value (CYP1A2 genotype GG (n = 15), B-5 15 mg) was 481.4 Total # errors × Hours. The “CPAL - AUC4-10 Placebo - B-5 Effect size” value (CYP1A2 genotype GG (n = 15), B-5 15 mg, P-value 0.6706) was −0.12, the “CPAL - AUC4-10 Estimated mean AUC 4-10” value (CYP1A2 genotype GG (n = 15), B-5 100 mg) was 457.45 Total # errors × Hours and the “CPAL - AUC4-10 Placebo - B-5 Effect size” value (CYP1A2 genotype GG (n = 15), B-5 100 mg, P-value 0.9344) was −0.02. For the same molecule, the “CPAL - AUC4-10 Estimated mean AUC 4-10” value (CYP1A2 genotypes AA + AG (n = 14), B-5 2 mg) was 411.15 Total # errors × Hours, the “CPAL - AUC4-10 Placebo - B-5 Effect size” value (CYP1A2 genotypes AA + AG (n = 14), B-5 2 mg, P-value 0.018) was 0.68 and the “CPAL - AUC4-10 Estimated mean AUC 4-10” value (CYP1A2 genotypes AA + AG (n = 14), B-5 15 mg) was 372.82 Total # errors × Hours. For the same molecule, the “CPAL - AUC4-10 Placebo - B-5 Effect size” value (CYP1A2 genotypes AA + AG (n = 14), B-5 15 mg, P-value 0.0023) was 0.91, the “CPAL - AUC4-10 Estimated mean AUC 4-10” value (CYP1A2 genotypes AA + AG (n = 14), B-5 100 mg) was 384.9 Total # errors × Hours and the “CPAL - AUC4-10 Placebo - B-5 Effect size” value (CYP1A2 genotypes AA + AG (n = 14), B-5 100 mg, P-value 0.0043) was 0.83. The “improvement on cognitive function” value (patients homozygous rs2069514-G/G) was “did not show any significant improvement” and the “response on visual learning and memory (CPAL) compared to placebo” value (patients rs2069514 A/A or A/G, 2 mg p=0.018, 15 mg p=0.0023, 100 mg p=0.0043) was “significant response”.
